Reference: patent US7276519B2, “Thieno[3,2-b]pyridine-6-carbonitriles and thieno[2,3-b]pyridine-5-carbonitriles as protein kinase inhibitors” (Wyeth, priority 2002, dated 2007)
Several values for one entry are separate records, joined by “and”; a condition that tells them apart may be missing. Equal entries are not always repeated. Where two headings read alike, the source gives them in different places.

How the values were obtained:
[1] = test system: Rat2 fibroblasts stably transformed with v-Src/Hu c-Src fusion gene; experiment: Anchorage independent Src-transformed fibroblast proliferation assay; assay type: cell-based, rat
Experimental: Anchorage Independent Src-Transformed Fibroblast Proliferation Assay Rat2 fibroblasts stably transformed with a plasmid containing a CMV promotor controlled v-Src/Hu c-Src fusion gene in which the catalytic domain of human c-Src was inserted in place of the v-Src catalytic domain in the v-Src gene are used for the measurement of src dependent suspension growth. […] Multiple entries for a given compound indicate that it was tested multiple times.

[2] = target: T1, Rat2 fibroblasts stably transformed with v-Src/Hu Lck fusion gene (Homo sapiens, UniProt P06239, cells depend on it, form not given); experiment: Anchorage independent Lck-transformed fibroblast proliferation assay; assay type: cell-based, rat
T1 construct: Candidates are e.g. Schmidt-Ruppin A (P00524) or Prague C (P00526); The human Lck catalytic domain stands in place of the v-Src catalytic domain
Experimental: Anchorage Independent Lck-Transformed Fibroblast Proliferation Assay
Rat2 fibroblasts stably transformed with a plasmid containing a CMV promotor controlled v-Src/Hu Lck fusion gene in which the catalytic domain of human Lck was inserted in place of the v-Src catalytic domain in the v-Src gene are used for the measurement of src dependent suspension growth. Ultra-low cluster plates (Costar # 3474) are seeded with 10,000 cells per well on Day 1. Compound is added in serial two-fold dilutions from 10 micromolar to 0.009 micromolar on Day 2 and MTS reagent (Promega) is added on Day 5 (100 microliters of MTS/medium mix+100 microliters of medium already on the cells and the absorbance is measured at 490 nm. The results are analyzed as follows to yield an IC50 for proliferation (micromolar units) as follow: % inhibition=(Abs490 nm sample−blank)/(Abs490 nm no cmpd control−blank)×100%. The results obtained for representative compounds of this invention are listed in Table 2. Multiple entries for a given compound indicate that it was tested multiple times.

[3] = Rattus norvegicus, Rat2, Table 3, read-out: Src Cells IC50 μM or % inhib at 10 μM (IC50 values)
[4] = Table 3, read-out: Src Cells IC50 μM or % inhib at 10 μM (IC50 values)
[5] = Table 3, read-out: Lck Cells IC50
[6] = Rattus norvegicus, Rat2, 120 h, Table 1, suspension growth, MTS readout Day 5, read-out: Src cells IC50
[7] = Table 2, suspension growth, MTS readout Day 5, read-out: Lck cells IC50
[8] = Table 1, suspension growth, MTS readout Day 5, read-out: Src cells IC50

T1 sequence (P06239 whole entry, change not shown, the tested form may be a part): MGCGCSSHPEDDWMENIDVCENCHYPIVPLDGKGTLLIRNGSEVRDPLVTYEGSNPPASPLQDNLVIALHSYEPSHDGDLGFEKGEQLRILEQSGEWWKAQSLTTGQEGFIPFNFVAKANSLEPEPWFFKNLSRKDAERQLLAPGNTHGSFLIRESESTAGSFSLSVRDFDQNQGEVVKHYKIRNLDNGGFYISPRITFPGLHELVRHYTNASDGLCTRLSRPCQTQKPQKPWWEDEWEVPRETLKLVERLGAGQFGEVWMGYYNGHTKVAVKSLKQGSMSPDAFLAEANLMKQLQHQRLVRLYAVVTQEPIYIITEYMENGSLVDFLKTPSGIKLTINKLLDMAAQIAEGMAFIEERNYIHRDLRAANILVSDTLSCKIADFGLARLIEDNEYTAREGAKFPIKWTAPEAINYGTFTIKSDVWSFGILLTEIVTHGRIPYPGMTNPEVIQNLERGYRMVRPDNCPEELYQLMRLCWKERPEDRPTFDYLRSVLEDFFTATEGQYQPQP

| SMILES | GI50 [2, 5] | melting point | GI50 [2, 7] | IC50 [1, 3] [µM] | IC50 [1, 4] [µM] | IC50 [1, 6] [µM] | IC50 [1, 8] [µM] |
| --- | --- | --- | --- | --- | --- | --- | --- |
| COc1cc(Nc2c(C#N)cnc3cc(-c4ccc(CN(C)C)o4)sc23)c(Cl)cc1Cl [Example 76, 7-[(2,4-dichloro-5-methoxyphenyl)amino]-2-{5-[(dimethylamino)methyl]-2-furyl}thieno[3,2-b]pyridine-6-carbonitrile] | 910 nM and 990 nM | 200 to 202 °C | – | 4.9 | 2.6 | – | – |
| COc1cc(Nc2c(C#N)cnc3cc(-c4ccc(C5OCCO5)o4)sc23)c(Cl)cc1Cl [Example 68, 7-[(2,4-dichloro-5-methoxyphenyl)amino]-2-[5-(1,3-dioxolan-2-yl)-2-furyl]thieno[3,2-b]pyridine-6-carbonitrile] | 2800 nM and 3000 nM | 187 to 189 °C | – | 6.1 | 6 | – | – |
| COc1cc(Nc2c(C#N)cnc3cc(Br)sc23)c(Cl)cc1Cl [Example 3, 2-Bromo-7-[(2,4-dichloro-5-methoxyphenyl)amino]-thieno[3,2-b]pyridine-6-carbonitrile] | – | 228 to 229 °C | 32000 nM | – | – | 37 | – |
| COc1cc(Nc2c(C#N)cnc3cc(-c4ccc(CN(C)C)cc4)sc23)cc(OC)c1OC [Example 61, 2-{4-[(Dimethylamino)methyl]phenyl}-7-[(3,4,5-trimethoxyphenyl)amino]thieno[3,2-b]pyridine-6-carbonitrile] | – | 199 to 201 °C | 17 nM and 15 nM and 14 nM | – | – | 0.217 | 0.279 |
| COc1cc(Nc2c(C#N)cnc3cc(-c4ccc(CN5CCN(CCO)CC5)cc4)sc23)c(Cl)cc1Cl [Example 17, 7-[(2,4-Dichloro-5-methoxyphenyl)amino]-2-(4-{[4-(2-hydroxyethyl)piperazin-1-yl]methyl}phenyl)thieno[3,2-b]pyridine-6-carbonitrile] | – | 189 to 190 °C | 140 nM | – | – | 0.37 | – |
| COc1cc(Nc2c(C#N)cnc3cc(-c4ccc(CN5CCN(C)CC5)cc4)sc23)cc(OC)c1OC [Example 58, 2-{4-[(4-Methylpiperazin-1-yl)methyl]phenyl}-7-[(3,4,5-trimethoxyphenyl)amino]thieno[3,2-b]pyridine-6-carbonitrile] | – | 189 to 191 °C | 48 nM | – | – | 0.165 | 0.245 |
| COc1cc(Nc2c(C#N)cnc3cc(-c4csc(CN5CCOCC5)c4)sc23)c(Cl)cc1Cl [Example 39, 7-[(2,4-Dichloro-5-methoxyphenyl)amino]-2-[5-(morpholin-4-ylmethyl)thien-3-yl]thieno[3,2-b]pyridine-6-carbonitrile] | – | 209 to 212 °C | 680 nM | – | – | 0.85 | – |
| COc1cc(Nc2c(C#N)cnc3cc(/C=C/c4ccccc4)sc23)c(Cl)cc1Cl [Example 64, 7-[(2,4-Dichloro-5-methoxyphenyl)amino]-2-[(E)-2-phenylvinyl]thieno[3,2-b]pyridine-6-carbonitrile] | 7400 nM and 7900 nM | 236 to 238 °C | – | 6.4 | 5.6 | – | – |
| COc1cc(Nc2c(C#N)cnc3cc(-c4ccc(C5OCCO5)s4)sc23)c(Cl)cc1Cl [Example 77, 7-[(2,4-dichloro-5-methoxyphenyl)amino]-2-[5-(1,3-dioxolan-2-yl)thien-2-yl]thieno[3,2-b]pyridine-6-carbonitrile] | 1900 nM and 1700 nM | 213 to 217 °C | – | 2.4 | 1.5 | – | – |
| COc1cc(Nc2c(C#N)cnc3cc(-c4ccc(CN5CCN(C)CC5)s4)sc23)c(Cl)cc1Cl [Example 81, 7-[(2,4-dichloro-5-methoxyphenyl)amino]-2-{5-[(4-methylpiperazin-1-yl)methyl]thien-2-yl}thieno[3,2-b]pyridine-6-carbonitrile] | 180 nM and 220 nM | 200 to 202 °C | – | – | – | – | – |
| COc1cc(Nc2c(C#N)cnc3cc(-c4cccc(CN5CCN(C)CC5)c4)sc23)c(Cl)cc1Cl [Example 74, 7-[(2,4-dichloro-5-methoxyphenyl)amino]-2-{3-[(4-methylpiperazin-1-yl)methyl]phenyl}thieno[3,2-b]pyridine-6-carbonitrile] | 600 nM and 510 nM | 178 to 180 °C | – | – | – | – | – |

Continued, in another order:

| GI50 [2, 5] | melting point | GI50 [2, 7] | SMILES | IC50 [1, 3] [µM] | IC50 [1, 4] [µM] | IC50 [1, 6] [µM] | IC50 [1, 8] [µM] |
| --- | --- | --- | --- | --- | --- | --- | --- |
| > 10000 nM | 268 °C (dec.) | – | COc1cc(Nc2c(C#N)cnc3c(-c4ccc(C=O)cc4)csc23)c(Cl)cc1Cl [Example 140, 7-[(2,4-Dichloro-5-methoxyphenyl)amino]-3-(4-formylphenyl)thieno[3,2-b]pyridine-6-carbonitrile] | 8.46 | 8.58 | – | – |
| 67 nM and 53 nM | 189 to 192 °C | – | COc1cc(Nc2c(C#N)cnc3cc(-c4coc(CN5CCN(C)CC5)c4)sc23)c(Cl)cc1Cl [Example 137, 7-[(2,4-dichloro-5-methoxyphenyl)amino]-2-{5-[(4-methylpiperazin-1-yl)methyl]-3-furyl}thieno[3,2-b]pyridine-6-carbonitrile] | 0.303 | 0.211 | – | – |
| 82 nM and 97 nM | 192 to 193 °C | – | CCN(CC)Cc1ccc(-c2cc3ncc(C#N)c(Nc4cc(OC)c(Cl)cc4Cl)c3s2)nc1 [Example 133, 7-[(2,4-dichloro-5-methoxyphenyl)amino]-2-{5-[(diethylamino)methyl]pyridin-2-yl}thieno[3,2-b]pyridine-6-carbonitrile] | 0.436 | 0.289 | – | – |
| 1000 nM and 1060 nM | 128 to 130 °C | – | COc1cc(Nc2c(C#N)cnc3cc(-c4ccc(CNCc5ccncc5)cc4)sc23)c(Cl)cc1Cl [Example 89, 7-[(2,4-dichloro-5-methoxyphenyl)amino]-2-(4-{[(pyridin-4-ylmethyl)amino]methyl}phenyl)thieno[3,2-b]pyridine-6-carbonitrile] | 1.5 | 1.21 | – | – |
| > 10000 nM | 245 to 247 °C | – | COc1cc(Nc2c(C#N)cnc3cc(-c4ccc(CN5CCN(c6ccccn6)CC5)cc4)sc23)c(Cl)cc1Cl [Example 112, 7-[(2,4-dichloro-5-methoxyphenyl)amino]-2-{4-[(4-pyridin-2-ylpiperazin-1-yl)methyl]phenyl}thieno[3,2-b]pyridine-6-carbonitrile] | > 10 | 5.78 | – | – |
| > 10000 nM | 238 to 240 °C | – | COc1cc(Nc2c(C#N)cnc3cc(-c4ccc(CN5CCN(c6ccccc6)CC5)cc4)sc23)c(Cl)cc1Cl [Example 113, 7-[(2,4-dichloro-5-methoxyphenyl)amino]-2-{4-[(4-phenylpiperazin-1-yl)methyl]phenyl}thieno[3,2-b]pyridine-6-carbonitrile] | – | – | – | – |
| 8900 nM and > 10000 nM | 176 to 179 °C | – | COc1cc(Nc2c(C#N)cnc3cc(-c4ccc(CN5CCN(c6ccccc6OC)CC5)cc4)sc23)c(Cl)cc1Cl [Example 120, 7-[(2,4-dichloro-5-methoxyphenyl)amino]-2-(4-{[4-(2-methoxyphenyl)piperazin-1-yl]methyl}phenyl)thieno[3,2-b]pyridine-6-carbonitrile] | – | – | – | – |
| 1220 nM and 1340 nM | 245 to 247 °C | – | CN1CCN(Cc2ccc(-c3cc4ncc(C#N)c(Nc5ccc(Cl)cc5Cl)c4s3)cc2)CC1 [Example 119, 7-[(2,4-dichlorophenyl)amino]-2-{4-[(4-methylpiperazin-1-yl)methyl]phenyl}thieno[3,2-b]pyridine-6-carbonitrile] | – | – | – | – |
